Source: the NIST ThermoML archive (doi:10.1016/j.jct.2010.07.008)

Details: Liquid, Closed cell (Static) method

CN(C)CCOCCO [2-(2-dimethylaminoethoxy)ethanol]
Details	vapor or sublimation pressure [kPa]
283.15 K	0.007
293.14 K	0.016
303.09 K	0.0346
313.08 K	0.0707
323.28 K	0.1418
333.12 K	0.2604
343.12 K	0.4742
353.14 K	0.8145
363.35 K	1.419
373.1 K	2.315
